Data published in patent US20150105252A1, “SUBSTITUTED PYRAZOLES AS HERBICIDES” (E I DU PONT DE NEMOURS AND COMPANY, priority 2013, published 2015).

Experiments:
[1] = system: barnyardgrass; assay: Test A preemergence; assay type: in vivo, Echinochloa crus-galli; details: preemergence; for Barnyardgrass plant response rating (0 to 100 scale, 0 is no effect, 100 is complete control): 125 g ai/ha, visual injury approx. 10 days after treatment; for Barnyardgrass plant response rating: 500 g ai/ha, visual injury after approx. 10 days, 0 to 100 scale (0 no effect, 100 complete control)
Procedure, shortened: (§1)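 Injury readout: eye-scored versus untreated controls, 0 to 100. Exposure period: ~10 days, greenhouse. Application: soil-directed spray over sown seed (pre) or spray on seedlings 2–10 cm tall with one or two leaves (post), compound carried in non-phytotoxic solvent including surfactant.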

[2] = system: common ragweed; assay: Test A postemergence; assay type: in vivo, Ambrosia elation
Text: (§2) Seeds of plant species selected from barnyardgrass (Echinochloa crus-galli), kochia (Kochia scoparia), common ragweed (Ambrosia elation), Italian ryegrass (Lolium multiflorum), crabgrass, large (large crabgrass, Digitaria sanguinalis), foxtail, giant (giant foxtail, Setaria faberii), morningglory (Ipomoea spp.), pigweed (redroot pigweed, Amaranthus retroflexus), velvetleaf (Abutilon theophrasti), wheat (Triticum aestivum), and corn (Zea mays) were planted into a blend of loam soil and sand and treated preemergence with a directed soil spray using test chemicals formulated in a non-phytotoxic solvent mixture which included a surfactant.
(§3) At the same time, plants selected from these crop and weed species and also blackgrass (Alopecurus myosuroides), and galium (catchweed bedstraw, Galium aparine) were planted in pots containing the same blend of loam soil and sand and treated with postemergence applications of test chemicals formulated in the same manner. Plants ranged in height from 2 to 10 cm and were in the one- to two-leaf stage for the postemergence treatment. Treated plants and untreated controls were maintained in a greenhouse for approximately 10 days, after which time all treated plants were compared to untreated controls and visually evaluated for injury. Plant response ratings, summarized in Table A, are based on a 0 to 100 scale where 0 is no effect and 100 is complete control. A dash (-) response means no test result.

[3] = system: barnyardgrass; assay: Test A postemergence; assay type: in vivo, Echinochloa crus-galli
Procedure, shortened: as §1

[4] = system: barnyardgrass; assay: Test B flood; assay type: in vivo, Echinochloa crus-galli; details: 250 g ai/ha, visual rating on 0 to 100 scale (0 no effect, 100 complete control), 13 to 15 days
Procedure, shortened: (§4)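 Paddy-water application: seedlings at 2-leaf stage, flood depth 3 cm maintained for the test duration. Evaluation after 13–15 days in the greenhouse by eye relative to controls; 0–100 scale.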

[5] = system: common ragweed; assay: Test A preemergence; assay type: in vivo, Ambrosia elation; details: for Common Ragweed plant response rating (0 to 100 scale): 125 g ai/ha, visual injury approx. 10 days after treatment; for Common Ragweed plant response rating: 500 g ai/ha, visual injury after approx. 10 days, 0 to 100 scale (0 no effect, 100 complete control)
Text: as §2, §3

[6] = system: Italian ryegrass; assay: Test A preemergence; assay type: in vivo, Lolium multiflorum; details: for Italian Ryegrass plant response rating (0 to 100 scale): 125 g ai/ha, visual injury approx. 10 days after treatment; for Italian Ryegrass plant response rating: 500 g ai/ha, visual injury after approx. 10 days, 0 to 100 scale (0 no effect, 100 complete control)
Procedure, shortened: as §1

[7] = system: kochia; assay: Test A postemergence; assay type: in vivo, Kochia scoparia; details: Postemergence
Procedure, shortened: as §1

[8] = system: rice; assay: Test B flood; assay type: in vivo, Oryza sativa; details: 250 g ai/ha, visual rating on 0 to 100 scale (0 no effect, 100 complete control), 13 to 15 days
Procedure, shortened: as §4

[9] = system: sedge, umbrella; assay: Test B flood; assay type: in vivo, Cyperus difformis; details: 250 g ai/ha, visual rating on 0 to 100 scale (0 no effect, 100 complete control), 13 to 15 days
Procedure, shortened: as §4

[10] = system: pigweed; assay: Test A preemergence; assay type: in vivo, Amaranthus retroflexus; details: preemergence, 125 g ai/ha, visual injury approx. 10 days after treatment
Procedure, shortened: as §1

[11] = system: blackgrass; assay: Test A postemergence; assay type: in vivo, Alopecurus myosuroides
Text: as §2, §3

[12] = system: foxtail, giant; assay: Test A preemergence; assay type: in vivo, Setaria faberii; details: preemergence; for Foxtail, Giant plant response rating (0 to 100 scale): 125 g ai/ha, visual injury approx. 10 days after treatment; for Foxtail, Giant plant response rating: 500 g ai/ha, visual injury after approx. 10 days, 0 to 100 scale (0 no effect, 100 complete control)
Procedure, shortened: as §1

[13] = system: wheat; assay: Test A postemergence; assay type: in vivo, Triticum aestivum; details: Postemergence
Procedure, shortened: as §1

[14] = system: corn; assay: Test A postemergence; assay type: in vivo, Zea mays
Procedure, shortened: as §1

[15] = system: Italian ryegrass; assay: Test A postemergence; assay type: in vivo, Lolium multiflorum; details: Postemergence
Text: as §2, §3

[16] = system: galium; assay: Test A postemergence; assay type: in vivo, Galium aparine; details: Postemergence
Text: as §2, §3

[17] = system: ducksalad; assay: Test B flood; assay type: in vivo, Heteranthera limosa; details: 250 g ai/ha, visual rating on 0 to 100 scale (0 no effect, 100 complete control), 13 to 15 days
Procedure, shortened: as §4

[18] = system: foxtail, giant; assay: Test A postemergence; assay type: in vivo, Setaria faberii
Procedure, shortened: as §1

[19] = system: pigweed; assay: Test A postemergence; assay type: in vivo, Amaranthus retroflexus; details: Postemergence
Procedure, shortened: as §1

[20] = system: kochia; assay: Test A preemergence; assay type: in vivo, Kochia scoparia; details: 125 g ai/ha, visual injury approx. 10 days after treatment
Procedure, shortened: as §1

[21] = Postemergence, 500 g ai/ha, 0 to 100 scale (0 no effect, 100 complete control)
[22] = postemergence, 125 g ai/ha, about 10 days, visual rating on 0 to 100 scale (0 no effect, 100 complete control)
[23] = 125 g ai/ha, 0 to 100 scale, 0 no effect, 100 complete control
[24] = 500 g ai/ha, 0 to 100 scale (0 no effect, 100 complete control)
[25] = Postemergence, 125 g ai/ha, 0 to 100 scale, 0 no effect, 100 complete control

| SMILES | Barnyardgrass plant response rating (0 to 100 scale, 0 is no effect, 100 is complete control) [1] | Barnyardgrass plant response rating [1] | Common Ragweed plant response rating [2, 21] | Barnyardgrass plant response rating [3, 21] | Plant response rating, Barnyardgrass [4] | Common Ragweed plant response rating (0 to 100 scale) [5] | Common Ragweed plant response rating [5] | Italian Ryegrass plant response rating (0 to 100 scale) [6] | Italian Ryegrass plant response rating [6] | Kochia plant response rating [7, 23] | Kochia plant response rating [7, 24] | Plant response rating, Rice [8] | Plant response rating, Sedge, Umbrella [9] | Pigweed plant response rating (0 to 100 scale) [10] | Blackgrass plant response rating [11, 21] | Foxtail, Giant plant response rating (0 to 100 scale) [12] | Foxtail, Giant plant response rating [12] | Wheat plant response rating [13, 23] | Wheat plant response rating [13, 24] | Corn plant response rating [14, 21] | further results |
| --- | --- | --- | --- | --- | --- | --- | --- | --- | --- | --- | --- | --- | --- | --- | --- | --- | --- | --- | --- | --- | --- |
| CCCNC(=O)c1cc(CC)n(Cc2cc(C(F)(F)F)nn2C(C)C)n1 [Compound 209] | 0 | 0 | 0 | 0 | 0 | 0 | 0 | 0 | 0 | 0 | 0 | 0 | 0 | 0 | 0 | 0 | 0 | 0 | 0 | 0 | Common Ragweed plant response rating [2, 22]: 0; Barnyardgrass plant response rating [3, 22]: 0; Blackgrass plant response rating [11, 22]: 0; Corn plant response rating [14, 22]: 0; Italian Ryegrass plant response rating [15, 23]: 0; Italian Ryegrass plant response rating [15, 24]: 0; Galium plant response rating [16, 23]: 0; Galium plant response rating [16, 24]: 0; Plant response rating, Ducksalad [17]: 0; Foxtail, Giant plant response rating [18, 21]: 0; Foxtail, Giant plant response rating [18, 22]: 0; Pigweed plant response rating [19, 23]: 0; Pigweed plant response rating [19, 24]: 0; Kochia plant response rating (0 to 100 scale) [20]: 0 |
| CCc1cc(C(=O)NC(C)C)nn1Cc1cc(C(F)(F)F)nn1C(C)C [Compound 210] | 0 | 0 | 0 | 0 | 0 | 0 | 0 | 0 | 0 | 10 | 20 | 0 | 0 | 0 | 0 | 0 | 0 | 0 | 0 | 0 | Common Ragweed plant response rating [2, 25]: 0; Barnyardgrass plant response rating [3, 25]: 0; Blackgrass plant response rating [11, 25]: 0; Corn plant response rating [14, 25]: 0; Italian Ryegrass plant response rating [15, 23]: 0; Italian Ryegrass plant response rating [15, 24]: 0; Galium plant response rating [16, 23]: 0; Galium plant response rating [16, 24]: 20; Plant response rating, Ducksalad [17]: 0; Foxtail, Giant plant response rating [18, 25]: 0; Foxtail, Giant plant response rating [18, 21]: 0; Pigweed plant response rating [19, 23]: 0; Pigweed plant response rating [19, 24]: 20; Kochia plant response rating (0 to 100 scale) [20]: 0 |
